We go through three compounds from patent publication US20250177477A1, “CYCLOSPORIN ANALOGUES AND USES THEREOF” (DYNEQ MEDICAL LIMITED, priority 2017, published 2025).

One experiment deals with Cyclophilin A (Homo sapiens, UniProt P62937). Put plainly: Cyclophilin inhibition binding, competitive ELISA (Cyclophilin A). Conditions: human recombinant cyclophilin, read-out: CypA EC50. On the procedure: (§1) The cyclophilin inhibition binding of compounds disclosed herein was determined using a competitive ELISA adapted from the methods described by Quesniaux et al. (Eur. J Immunol., 1987, 17:1359-1365). Activated ester of succinyl spacers bound to D-Lys^8-cylosporine A (D-Lys^8-Cs) are coupled to bovine serum albumin (BSA) through D-lysyl residue in position 8. BSA is dissolved in 0.1 M borate buffer, pH 9.0 (4 mg in 1.4 ml). A hundredfold molar excess of D-Lys^8-Cs dissolved in dimethyl formamide (0.6 ml) is added drop wise to the BSA under vigorous stirring. The coupling reaction is performed for 2 to 3 hours at room temperature under mild stirring and the conjugate is extensively dialyzed against phosphate-buffered saline (PBS, pH 7.4).
(§2) Microtiter Plates are coated with D-Lys^8-Cs-BSA conjugate (2 μg/ml in PBS for 24 hours at 4° C.). Plates are washed with Tween®/PBS and with PBS alone. To block nonspecific binding, 2% BSA/PBS (pH 7.4) is added to the wells and allowed to incubate for 2 hours at 37° C. […] Cyclophilin is detected with anti-cyclophilin rabbit antiserum diluted in 1% BSA containing PBS and incubates overnight at 4° C. […] Bound rabbit antibodies are then detected by goat anti-rabbit IgG conjugated to alkaline phosphatase diluted in 1% BSA-PBS and allowed to incubate for 2 hours at 37° C. […]

A further experiment has as its target Cyclophilin D (Homo sapiens, UniProt P30405). Put plainly: Cyclophilin inhibition binding, competitive ELISA (Cyclophilin D). Conditions: human recombinant cyclophilin, read-out: CypD EC50. How it is done:
as §1, §2

The test system of experiment [1] is Sprague-Dawley rats with induced Acute Kidney Injury. Put plainly: Renal Ischemia-Reperfusion Induced Acute Kidney Injury in rats. The following applies: for Creatinine: serum 24 hours after ligation/release. The experiment is classed as in vivo, rat. How it is done:
With the exception of Group (i), i.e. the ‘sham group’, renal Ischemia-Reperfusion Induced Acute Kidney Injury (AKI) was induced in the rats by ligation of bilateral renal arteries for 30 min and then ligation was released. Animals in the control and treatment groups were administered intraperitoneal injections three times (1 h before ligation, 4 h and 8 h after ligation). Blood was taken from the animals 24 hours after the ligation/release procedure and analyzed for serum Creatinine and Blood Urea Nitrogen (BUN) concentrations, as a measure of kidney injury.

The target in the next experiment is cyclophilin B (Homo sapiens, UniProt P23284). Put plainly: Cyclophilin inhibition binding, competitive ELISA (Cyclophilin B). Conditions: human recombinant cyclophilin, read-out: EC50 against cyclophilin B. How it is done: as §1, with “[…] After acetone precipitation of an aliquot of the conjugated protein, no covalently bound D-Lys^8-Cs remains in the acetone solution” for “The coupling reaction is performed for 2 to 3 hours at room temperature under mild stirring”, “extent of cyclosporine covalent binding” for “conjugate”, “calculated.” for “extensively dialyzed against phosphate-buffered saline (PBS, pH 7.4).”
Microtiter Plates are coated with D-Lys^8-Cs-BSA conjugate (2 μg/ml in PBS for 24 hours at 4° C.). […] Cyclophilin is detected with anti-cyclophilin rabbit antiserum diluted in 1% BSA containing PBS and incubates overnight at 4° C. […] Bound rabbit antibodies are then detected by goat anti-rabbit IgG conjugated to alkaline phosphatase diluted in 1% BSA-PBS and allowed to incubate for 2 hours at 37° C. […] After incubation with 4-nitrophenyl phosphate (1 g/l in diethanolamine buffer, pH 9.8) for 1 to 2 hours at 37° C., the enzymatic reaction is measured spectrophotometrically at 405 nm using a spectrophotometer. […]

Sequence of Cyclophilin D (P30405 30-207): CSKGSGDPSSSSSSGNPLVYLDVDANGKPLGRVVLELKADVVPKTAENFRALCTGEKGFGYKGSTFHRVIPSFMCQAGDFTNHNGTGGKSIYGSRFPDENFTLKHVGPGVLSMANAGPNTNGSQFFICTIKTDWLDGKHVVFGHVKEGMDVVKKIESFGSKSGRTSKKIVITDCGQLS
Sequence of cyclophilin B (P23284 34-216): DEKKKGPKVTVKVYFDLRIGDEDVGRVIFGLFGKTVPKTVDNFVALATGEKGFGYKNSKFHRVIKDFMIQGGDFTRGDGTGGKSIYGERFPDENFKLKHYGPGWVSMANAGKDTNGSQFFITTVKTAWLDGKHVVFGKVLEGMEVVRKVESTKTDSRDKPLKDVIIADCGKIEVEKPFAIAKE
Sequence of Cyclophilin A (P62937 whole entry): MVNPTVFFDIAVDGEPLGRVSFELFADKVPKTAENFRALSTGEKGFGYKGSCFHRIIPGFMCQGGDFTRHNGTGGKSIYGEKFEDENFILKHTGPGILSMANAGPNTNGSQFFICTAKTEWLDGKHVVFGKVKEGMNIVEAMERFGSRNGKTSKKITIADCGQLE

As to `C/C=C/C[C@@H](C)[C@@H](O)[C@H]1C(=O)N[C@@H](CC)C(=O)N(C)[C@H](OCCNC)C(=O)N(C)[C@@H](CC(C)C)C(=O)N[C@@H](C(C)C)C(=O)N(C)[C@@H](CC(C)C)C(=O)N[C@@H](C)C(=O)N[C@H](C)C(=O)N(C)[C@@H](CC(C)C)C(=O)N(C)[C@@H](CC(C)C)C(=O)N(C)[C@@H](C(C)C)C(=O)N1C` [Entry 1], the values for the EC50 at Cyclophilin A and on Cyclophilin D were 61 nM and 2170 nM, respectively.
Regarding `C/C=C/C[C@@H](C)[C@@H](O)[C@H]1C(=O)N[C@@H](CC)C(=O)N(C)CC(=O)N(C)[C@@H](CC(C)C)C(=O)N[C@@H](C(C)C)C(=O)N(C)[C@@H](CC(C)C)C(=O)N[C@@H](C)C(=O)N[C@H](C)C(=O)N(C)[C@@H](CC(C)C)C(=O)N(C)[C@@H](CC(C)C)C(=O)N(C)[C@@H](C(C)C)C(=O)N1C` [CsA, Cyclosporin A], the Creatinine amounted to 115 µmol/L in experiment [1] (3 mg/kg i.p. three times) and 290 µmol/L in experiment [1] (10 mg/kg i.p. three times). In experiment [1] (10 mg/kg i.p. three times, 24 hours after ligation/release), the “Blood Urea Nitrogen” value is 42 mmol/L.
As for `C/C=C/C[C@@H](C)[C@@H](O)[C@H]1C(=O)N[C@@H](CC)C(=O)N(C)[C@H](OCCN(C)C)C(=O)N(C)[C@@H](CC(C)C)C(=O)N[C@@H](C(C)C)C(=O)N(C)[C@@H](CC(C)C)C(=O)N[C@@H](C)C(=O)N[C@H](C)C(=O)N(C)[C@@H](CC(C)C)C(=O)N(C)[C@@H](CC(C)C)C(=O)N(C)[C@@H](C(C)C)C(=O)N1C` [Compound 1], at cyclophilin B, the EC50 was less than 100 nM.
